The text below walks through data of PMC11520371 (Journal of Pharmaceutical Health Care and Sciences, 2024).

Data set [1] concerns organic anion transporting polypeptide 1B1 (OATP1B1; SLCO1B1). The following applies: cited from earlier work.
Data set [2] concerns P-glycoprotein (P-gp; gene code ABCB1). The conditions noted are these: cited from earlier work.
Data set [3] concerns albumin. The following applies: cited from earlier work.
For data set [4] the following is noted: cited from earlier work.
The nature of data set [5]: Plasma concentrations measured by UPLC-MSMS in the case patient. The class given is in vivo, human. On the procedure:
The patient had pancreatic cancer and was admitted to Hirosaki University hospital to undergo a pancreatoduodenectomy. Written informed consent was obtained from this patient for the measurement of each biomarker and polymorphisms of pharmacokinetics-related genes. […] This regimen involved taking CAM 400 mg twice per day after breakfast and supper, RFP 450 mg once per day after breakfast, and ethambutol 750 mg once per day.

For the compound `CN1CCc2nc(C(=O)N[C@@H]3C[C@@H](C(=O)N(C)C)CC[C@@H]3NC(=O)C(=O)Nc3ccc(Cl)cn3)sc2C1` [edoxaban], in data set [1], the “substrate of OATP1B1” value was “not an OATP1B1 substrate”. Besides, the “substrate of P-glycoprotein” value in data set [2] is “substrate”. Moreover, the albumin binding rate in data set [3] is reported as 55%. In data set [4], the “absorbed drug excreted in its unchanged form through the kidneys” value is recorded as “approximately 50%” and the bioavailability result was “approximately 62%”. In data set [5] (male, human, in vivo, 30 mg/day, POD131, 26 h after last edoxaban tablet (C0h), edoxaban 30 mg/day, outpatient follow-up), this compound came in with a concentration at 26 h of less than 5 ng/mL. The compound also registered a concentration at 2 h in data set [5] (male, human, in vivo, 30 mg/day, POD233, 2 h after last edoxaban tablet (C2h), edoxaban 30 mg/day, outpatient follow-up) of 413 ng/mL. Further, in data set [5] (male, human, in vivo, 60 mg once per day, POD9, 24 h after last edoxaban tablet (trough, C0h), edoxaban 60 mg once per day with RFP and CAM, onset of AKI), the concentration at 24 h was 131 ng/mL. The concentration at 8 h in data set [5] (male, human, in vivo, 60 mg once per day, POD10, 8 h after last edoxaban tablet (C8h), edoxaban 60 mg once per day with RFP and CAM, AKI) was 796 ng/mL. The same compound registered a concentration at 24 h in data set [5] (male, human, in vivo, 60 mg once per day, POD11, 24 h after last edoxaban tablet (trough, C0h), AKI) of 116 ng/mL. In addition, in data set [5] (male, human, in vivo, 60 mg once per day, POD14, 96 h after last edoxaban tablet), the concentration at 96 h is less than 5 ng/mL.
With `CCCCC(=O)N(Cc1ccc(-c2ccccc2-c2nnn[nH]2)cc1)[C@H](C(=O)O)C(C)C` [valsartan], the “unchanged valsartan excreted in the urine” value in data set [4] is 13%. The “Plasma concentration of valsartan” value worked out at 2400 ng/mL in data set [5] (POD6), 5700 ng/mL in data set [5] (POD9), 10400 ng/mL in data set [5] (POD11) and 1000 ng/mL in data set [5] (POD131). In data set [5] (male, human, plasma, POD10, read-out: Plasma concentration of valsartan), the concentration at 10 postoperative day came to 9400 ng/mL. Besides, the concentration at 14 postoperative day in data set [5] (male, human, plasma, POD14, read-out: Plasma concentration of valsartan) came to 1400 ng/mL.
